Results from patent US20190201526A1, “Methods and Compositions for Treating Cancers by Inhibiting Estrogen Signaling in Myeloid-Derived Suppressor Cells” (The Wistar Institute of Anatomy and Biology, priority 2016, published 2019).

Tests used:
metastatic solid tumors = conditions: patients with metastatic solid tumors; Soliman, et al., Oncotarget 2014; cited from earlier work
[1] = test system: Lewis Lung Carcinomas (LLC); assay: Lewis Lung Carcinoma (LLC) tumor progression in mice; format: in vivo, mouse; conditions: estradiol supplementation, WT mice (FIG. 3A)
Protocol: (§1) Female 5-8 week old wild-type (WT) C57BL/6 and congenic Ly5.1 mice were purchased from the Charles River Frederick facility. Esr1 knockout (ERα KO) were purchased from The Jackson Laboratory. Ovariectomies were performed by Charles River staff at 5 weeks of age. Mice were treated with vehicle (0.1% ethanol) or 10 μM estradiol (USP grade, Sigma) drinking water refreshed every 3-4 days. All mice were maintained in pathogen-free barrier facilities. All experiments were conducted according to the approval of the Wistar Institute Institutional Animal Care and Use Committee.
ID8 cells were retrovirally transduced to express Defb29 and Vegf-α (Conejo-Garcia, et al. “Tumor-infiltrating dendritic cell precursors recruited by a beta-defensin contribute to vaculogenesis under the influence of Vegf-A.” Nat. Med. (2004) 10:950-8). MCF-7, MDA-MB-231, and LLC1 cells were obtained from American Type Culture Collection. Peritoneal tumors were initiated in mice by injecting 3X106 ID8-Defb29/Vegf-α cells intraperitoneal (i.p.). Intraperitoneal cells were harvested from tumorbearing mice by flushing the peritoneal cavity with PBS. […] Cell line proliferation was determined by MTS assay (Promega), and increased/decreased proliferation relative to vehicle was calculated.

Jak2 = Jak2 RNA and protein expression in BM-derived MDSCs; format: cell-based, mouse
Protocol: (§2) Mouse MDSCs were expanded from mouse bone marrow harvested by flushing tibias and femurs with media. Following red blood cell lysis, 2.5×10^6 cells were cultured in 10 mL of RPMI+10% FBS augmented with recombinant mouse 40 ng/mL GM-CSF^+40 ng/mL IL6 (Peprotech) and incubated at 37° C., 5% CO2 3 or 6 days. Vehicle, estradiol, or MPP treatments were added as described above. For 6 day cultures, cytokines and estrogen treatments were refreshed on day 3. Following incubation, floating and adherent cells were collected, and MMDSCs and G-MDSCs were isolated via MDSC purification kit according to manufacturer's protocol for further analysis. Human MDSCs were expanded from human lung cancer patient bone marrow acquired as single cell suspensions (see above). Briefly, 2×10^6 cells were cultured in 3 mL of IMDM^+ 15% FBS supplemented with recombinant human 40 ng/mL GM-CSF^+ 40 ng/mL IL6 (Peprotech) and treated with Vehicle, 2 μM, or 10 μM MPP (see above) for 4 days. Cells were subsequently harvested and analyzed by flow cytometry.
(§3) Cells were lysed in RIPA buffer supplemented with protease inhibitors, phosphatase inhibitors, and Na3VO4 (Thermo) according to manufacturer protocol. Protein quantification was determined via BCA assay, and protein was run on TGX 4-15% gradient gels. Following transfer, PVDF membranes were blocked with 5% BSA in TBS+ 0.05% Tween-20. […]

[2] = test system: G- or M-MDSCs isolated from 6-day bone marrow cultures; assay: MDSC suppression assay (Cell Trace Violet dilution of T cells); format: cell-based, mouse; conditions: 6-day BM cultures
Protocol: as §2
Naïve WT T cells were purified from spleens as described and labeled with the proliferation tracker Cell Trace Violet according to manufacturer protocol. T cell proliferation was stimulated by adding anti-CD3/CD28 mouse T-activator beads (Thermo) at a 1:1 T cell to bead ratio according to manufacturer protocol. […]

STAT3 [3] = assay: pSTAT3 and total STAT3 in in vitro BM-derived MDSC cultures (Western blot); format: cell-based, mouse; conditions: 100 ng/mL E2 or 2 μM MPP (FIG. 6B)
Protocol: as §2, §3

IL6Rα chain, gp130 = assay: Surface expression of IL6Rα and gp130 on BM-derived MDSCs (flow cytometry); format: cell-based, mouse
Protocol: (§4) Flow cytometry was performed by staining cells with Zombie Yellow viability dye, blocking with anti-CD16/32 (2.4G2), and staining for 30 min at 4° C. with the following anti-mouse antibodies: CD45 (30-F11), CD45.1 (A20), CD45.2 (104), CD11c (N418), I-A/I-E (M5/114.15.2), CD3 (145-2C11), Ly6G (1A8), Ly6C (HK1.4), gp130 (4H1B35), IL6R (D7715A7), Gr1 (RB6-4C5), CD4 (RM4-5), CD8b (YTS156.7.7), CD44 (IM7), CD69 (H1.2F3), CD11b (M1/70); or anti-human antibodies: CD45 (HI30), CD11c (Bul5), HLA-DR-APC/Cy7 (L243), CD15 (HI98), CD14 (HCD14), CD11b (ICRF44), CD33 (WM53), CD19 (HIB19). Samples were subsequently run using an LSRII and analyzed using FlowJo.
as §2, with “Human MDSCs were expanded from human lung cancer patient bone marrow acquired as single cell suspensions (see above). Briefly, 2×10^6 cells were cultured in 3 mL of IMDM^+ 15% FBS supplemented with recombinant human 40 ng/mL GM-CSF^+ 40 ng/mL IL6 (Peprotech) and treated with Vehicle, 2 μM, or 10 μM MPP (see above) for 4 days.” left out

[4] = test system: ID8-Defb29/Vegf-α peritoneal tumors; assay: Intraperitoneal ID8-Defb29/Vegf-α ovarian tumor model (survival, flow cytometry, ELISpot); format: in vivo, mouse
Protocol: as §1
(§5) ID8 cells were retrovirally transduced to express Defb29 and Vegf-α (Conejo-Garcia, et al. “Tumor-infiltrating dendritic cell precursors recruited by a beta-defensin contribute to vaculogenesis under the influence of Vegf-A.” Nat. Med. (2004) 10:950-8). MCF-7, MDA-MB-231, and LLC1 cells were obtained from American Type Culture Collection. Peritoneal tumors were initiated in mice by injecting 3X106 ID8-Defb29/Vegf-α cells intraperitoneal (i.p.). Intraperitoneal cells were harvested from tumorbearing mice by flushing the peritoneal cavity with PBS. Cells were maintained in vitro at 37° C., 5% CO2 by culturing in RPMI+10% FBS or steroid free media (SFR10), which was comprised of phenol red-free RPMI+10% charcoal-stripped FBS. Cells were treated in vitro with vehicle (0.1% DMSO) or varying concentrations of estradiol, fulvestrant, or Methylpiperidino pyrazole (MPP) purchased from Cayman Chemical. Cell line proliferation was determined by MTS assay (Promega), and increased/decreased proliferation relative to vehicle was calculated.
For generating mixed BM chimeras, mononuclear BM cells were collected from adult agematched CD45.1 (congenic) WT or CD45.2 Esr1^−/− donor mice, and 1-2×10^6 cells were mixed in a 1:1 ratio and retro-orbitally injected into lethally irradiated (˜950 rad) adult recipients. Mixed chimeras were analyzed after 7-8 weeks as indicated.
as §4
Dendritic cells (BMDCs) were differentiated by culturing WT mouse bone marrow for 7 days with 20 ng/mL GM-CSF (Peprotech 315-03), refreshed every 3 days. BMDCs were subsequently primed with tumor antigen by pulsing for 24 hours with irradiated (100 Gy+30 minutes UV) ID8-Defb29/Vegf-α cells at a ratio of 10:1. ELISPOT assay was performed by stimulating 1X105 cells obtained from peritoneal wash with 1X104 antigen-primed BMDCs in a 96-well filter plate (Millipore MSIPS4510) coated with IFNγ capture antibody according to manufacturer's guidelines (eBioscience 88-3784-88). Following incubation at 37° C., 5% CO2 or 48 hours, positive spots were developed using Avidin-AP and BCIP-NBT substrate (R&D Systems SEL002).

ID8-Defb29/Vegf-α cells = assay: Cell line proliferation by MTS assay; format: cell-based, mouse; conditions: ID8-Defb29/Vegf-α cells in vitro, increasing doses, steroid-free media; MCF-7 as positive control (FIG. 1D)
Description: as §5

STAT3 [5] = assay: pSTAT3 in MDSCs from tumor-bearing mice (Western blot); format: in vivo, mouse; conditions: spleens of advanced ovarian cancer-bearing mice treated with E2, compared to oophorectomized mice (FIG. 6A)
Protocol: as §1
Cells were lysed in RIPA buffer supplemented with protease inhibitors, phosphatase inhibitors, and Na3VO4 (Thermo) according to manufacturer protocol. Protein quantification was determined via BCA assay, and protein was run on TGX 4-15% gradient gels. Following transfer, PVDF membranes were blocked with 5% BSA in TBS+ 0.05% Tween-20. The following primary antibodies were added to membranes, as indicated, and incubated overnight: Jak2 (rabbit clone#D2E12), Stat3 (clone#124H6) and pStat3 (Tyr705)(rabbit clone#D3A7), from Cell Signaling; and ERα (Thermo, clone#TE111.5D11) and beta-actin (Sigma, clone#AC-15).
Following secondary staining with HRP-conjugated anti-mouse or rabbit IgG, membranes were developed using ECL prime (GE Healthcare).

SMILES | Activity in human clinical trials (metastatic solid tumors) | Malignant growth of LLC tumors [1] | Survival of LLC tumor-bearing mice [1] | Jak2 protein expression (Jak2; BM-derived MDSCs (FIG. 6E, right)) | Jak2 RNA expression (Jak2; cytokine-induced bone marrow MDSCs of both lineages (FIG. 6E, left)) | Inhibitory activity of M-MDSCs ([2]; 100 ng/mL E2 (FIG. 5C, bottom)) | Immunosuppressive activity of G-MDSCs ([2]; 100 ng/mL E2 or 2 μM MPP (FIG. 5C, top)) | Phospho-STAT3 in M-MDSCs and G-MDSCs (STAT3 [3]) | Surface expression of the IL6Rα chain (IL6Rα chain, gp130; BM-MDSCs (FIG. 6D, left)) | Surface expression of gp130 (IL6Rα chain, gp130; BM-MDSCs (FIG. 6D, right)) | Tumor progression in irradiated mice reconstituted with wild-type bone marrow ([4]; E2 treatment, compared to mice reconstituted with ERα-deficient bone marrow (FIG. 4B)) | IFN-γ ELISpot response of tumor-associated T cells to tumor antigens ([4]; T cells from E2-treated mice vs control and oophorectomized mice (FIG. 2C)) | Inflammation at tumor (peritoneal) beds ([4]; ad libitum estradiol supplementation, tumor-bearing mice (FIG. 2A)) | Tumor progression in ERα KO hosts ([4]; estradiol supplementation, ERα KO mice (FIG. 4A)) | Tumor progression in wild-type controls ([4]; estradiol supplementation, wild-type mice (FIG. 4A)) | Proportions of CD44+ CD69+ tumor-associated CD4 and CD8 T-cells ([4]; estradiol-supplemented tumor-bearing mice (FIG. 2B)) | Percentage and total numbers of M-MDSC and G-MDSC ([4]; spleen and tumor beds of tumor-bearing mice (FIGS. 3B to 3E)) | Proliferation relative to vehicle (response to treatment) (ID8-Defb29/Vegf-α cells) | Levels of pSTAT3Y705 in monocytic and granulocytic MDSCs (STAT3 [5])
Cn1cc(C[C@@H](N)C(=O)O)c2ccccc21 [Indoximod, 1-methyl-D-tryptophan] | has shown activity |  |  |  |  |  |  |  |  |  |  |  |  |  |  |  |  |  | 
C[C@]12CC[C@@H]3c4ccc(O)cc4CC[C@H]3[C@@H]1CC[C@@H]2O [estradiol] |  | accelerated malignant growth | decreased survival | reproducible Jak2 up-regulation | transcriptional up-regulation | did not affect | more potently immunosuppressive | increased phospho-STAT3 levels | did not elicit changes | did not elicit changes | tumors progress significantly faster | responded significantly worse than either group | augmented inflammation | failed to accelerate tumor progression | significant effects | decreases | increased | fail to respond | significantly increased
